Results as given in paper PMC10253498 (RSC Advances, 2023).
“Also recorded” adds a separate entry of the source. Marks after values point to notes of the source that are not given here.

Tests used:
[1] = biological target: T1, monoamine oxidase A (MAO-A, extracted) (Homo sapiens, UniProt P21397); settings: for MAO-A %age inhibition: compounds not above 50% inhibition, test concentration not given
T1 sequence (P21397 1-527): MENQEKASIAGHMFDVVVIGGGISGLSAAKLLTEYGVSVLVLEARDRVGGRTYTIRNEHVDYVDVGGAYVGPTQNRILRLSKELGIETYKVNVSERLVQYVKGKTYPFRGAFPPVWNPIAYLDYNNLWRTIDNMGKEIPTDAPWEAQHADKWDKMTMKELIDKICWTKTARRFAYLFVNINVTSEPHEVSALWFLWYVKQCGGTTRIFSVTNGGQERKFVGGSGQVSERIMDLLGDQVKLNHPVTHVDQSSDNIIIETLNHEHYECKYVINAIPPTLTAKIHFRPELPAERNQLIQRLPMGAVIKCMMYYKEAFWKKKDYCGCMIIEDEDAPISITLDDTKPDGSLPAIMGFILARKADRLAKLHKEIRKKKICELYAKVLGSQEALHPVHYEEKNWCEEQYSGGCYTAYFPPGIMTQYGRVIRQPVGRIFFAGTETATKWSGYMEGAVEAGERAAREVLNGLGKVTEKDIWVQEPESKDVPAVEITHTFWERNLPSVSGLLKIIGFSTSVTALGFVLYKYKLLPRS

[2] = biological target: T1, monoamine oxidase A (MAO-A, extracted); experiment: biochemical
Description: (§1) Newly synthesized compounds were tested on monoamine oxidase A and B (extracted). […] Reaction mixture was composed of 100 μL of total assay volume having 30 μL buffer (pH 7.4), 10 μL test compounds, 10 μL of extracted enzyme (MAO-A: 13 μg mL^−1, MAO-B: 15 μg mL^−1), 30 μL of amplex red and 20 μL of substrate (p-tyramine). Initially reaction mixture having buffer + test compound + enzyme was incubated for 15 minutes for MAO-A And MAO-B. After Incubation the amplex red reagent was added followed by addition of substrate p-tyramine. The change in the fluorescence was determined by using fluorescence plate reader: FLUOstar® Omega (BMG Labtech GmbH, orten berg Germany). […] All experiments were performed in triplicate. IC50 values were calculated by non-linear curve fitting program PRISM 5.0 (GraphPad, San Diego, California, USA) where log inhibitor vs. response curve was generated.

[3] = biological target: butyryl cholinesterase (BChE) (Homo sapiens, UniProt P06276); experiment: Butyryl cholinesterase inhibition assay; format: biochemical; settings: for BChE %age inhibition: test concentration not given
Chain of butyryl cholinesterase (BChE) (P06276 29-602, species assumed): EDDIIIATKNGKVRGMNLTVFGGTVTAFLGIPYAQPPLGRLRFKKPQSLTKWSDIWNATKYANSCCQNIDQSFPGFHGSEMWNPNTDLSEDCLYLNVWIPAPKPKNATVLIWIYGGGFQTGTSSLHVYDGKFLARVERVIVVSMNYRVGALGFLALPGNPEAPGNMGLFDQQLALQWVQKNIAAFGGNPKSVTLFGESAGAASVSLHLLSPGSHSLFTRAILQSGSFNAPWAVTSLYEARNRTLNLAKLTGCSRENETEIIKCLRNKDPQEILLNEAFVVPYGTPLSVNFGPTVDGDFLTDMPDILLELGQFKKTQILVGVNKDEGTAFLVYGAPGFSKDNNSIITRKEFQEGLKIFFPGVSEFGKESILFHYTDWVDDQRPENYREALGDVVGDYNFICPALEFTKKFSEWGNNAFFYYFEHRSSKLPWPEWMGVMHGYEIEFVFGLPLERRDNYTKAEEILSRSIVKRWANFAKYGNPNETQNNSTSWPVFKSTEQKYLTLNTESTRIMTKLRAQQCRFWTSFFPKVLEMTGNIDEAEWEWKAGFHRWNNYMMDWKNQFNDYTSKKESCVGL

[4] = biological target: T2, monoamine oxidase B (MAO-B, extracted) (Homo sapiens, UniProt P27338); settings: for MAO-B %age inhibition: compounds not above 50% inhibition, test concentration not given
T2 sequence (P27338 1-520): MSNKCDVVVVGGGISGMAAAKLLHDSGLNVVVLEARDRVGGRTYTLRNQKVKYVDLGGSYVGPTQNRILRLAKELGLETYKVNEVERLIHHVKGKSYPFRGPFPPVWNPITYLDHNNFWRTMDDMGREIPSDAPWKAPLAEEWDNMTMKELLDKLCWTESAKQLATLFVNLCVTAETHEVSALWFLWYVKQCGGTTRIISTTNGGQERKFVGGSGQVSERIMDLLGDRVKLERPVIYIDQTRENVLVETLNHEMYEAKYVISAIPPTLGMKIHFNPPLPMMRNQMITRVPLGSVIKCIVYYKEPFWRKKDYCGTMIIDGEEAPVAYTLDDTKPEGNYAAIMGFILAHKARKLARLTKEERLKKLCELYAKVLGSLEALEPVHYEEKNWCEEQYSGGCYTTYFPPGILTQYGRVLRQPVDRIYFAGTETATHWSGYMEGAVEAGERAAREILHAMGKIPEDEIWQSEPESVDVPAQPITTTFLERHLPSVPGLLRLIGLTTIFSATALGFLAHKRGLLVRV

[5] = biological target: T3, acetyl cholinesterase (AChE) (Homo sapiens, UniProt P22303); settings: for AChE %age inhibition: test concentration not given
T3 sequence (P22303 32-614, species assumed): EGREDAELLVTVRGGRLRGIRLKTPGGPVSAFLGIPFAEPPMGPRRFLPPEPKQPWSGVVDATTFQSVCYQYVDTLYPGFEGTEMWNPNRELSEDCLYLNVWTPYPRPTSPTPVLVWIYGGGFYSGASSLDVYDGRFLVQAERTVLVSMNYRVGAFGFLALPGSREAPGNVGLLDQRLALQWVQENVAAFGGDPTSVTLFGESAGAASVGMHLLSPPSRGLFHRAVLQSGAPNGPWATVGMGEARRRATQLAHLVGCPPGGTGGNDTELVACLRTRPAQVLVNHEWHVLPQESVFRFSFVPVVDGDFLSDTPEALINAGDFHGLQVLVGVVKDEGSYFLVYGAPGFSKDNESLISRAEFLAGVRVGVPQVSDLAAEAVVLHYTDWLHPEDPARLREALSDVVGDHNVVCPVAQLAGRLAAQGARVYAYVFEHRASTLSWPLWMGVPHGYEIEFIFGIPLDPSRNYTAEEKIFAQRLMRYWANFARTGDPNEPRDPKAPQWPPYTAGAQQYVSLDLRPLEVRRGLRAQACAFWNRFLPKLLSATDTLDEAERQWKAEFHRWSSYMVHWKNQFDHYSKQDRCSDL

[6] = biological target: T2, monoamine oxidase B (MAO-B, extracted); experiment: biochemical
Description: as §1

[7] = biological target: T3, acetyl cholinesterase (AChE); experiment: biochemical

Compound | inhibition against MAO-A (in words) [1] | IC50 [2] [µM] | BChE %age inhibition [3] [% ^c] | inhibition against MAO-B (in words) [4] | inhibition against AChE (in words) [5] | AChE %age inhibition [5] [% ^c] | IC50 [6] [µM] | MAO-A %age inhibition [1] | IC50 [7] [µM] | MAO-B %age inhibition [4] | inhibition against BChE (in words) [3]
CC(C)c1ccc(Nc2nnc(-c3ccc(C(F)(F)F)cc3)o2)cc1 [Compound 4m, N-(4-Isopropylphenyl)-5-(4-(trifluoromethyl)phenyl)-1,3,4-oxadiazol-2-amine] | potent inhibition | 0.11 ± 0.001 | 15.78 | strong inhibition | – | – | – | – | – | – | –
Cc1ccc(Nc2nnc(-c3ccncc3)o2)c(C)c1 [Compound 4k, N-(2,4-Dimethylphenyl)-5-(pyridin-4-yl)-1,3,4-oxadiazol-2-amine] | potent inhibition | 3.46 ± 2.58 | 14.67 | strong inhibition; also recorded: restored its inhibitory effects | moderate to weak inhibition; also recorded: lost its inhibitory effects | 39.65 | 1.1 ± 1.16 | – | – | – | –
Cc1c(F)cccc1-c1nnc(Nc2ccccc2)o1 [Compound 4o, 5-(3-Fluoro-2-methylphenyl)-N-phenyl-1,3,4-oxadiazol-2-amine] | – | – | 32.98 | – | – | – | – | 29.98 ^c % | 2.32 ± 0.08 | 22.65 ^c % | –
Fc1cc(F)cc(Cc2nnc(Nc3ccc(F)cc3F)o2)c1 [Compound 4g, N-(2,4-Difluorophenyl)-5-(3,5-difluorobenzyl)-1,3,4-oxadiazol-2-amine] | potent inhibition | 1.21 ± 0.04 | 15.23 | strong inhibition | – | – | 2.02 ± 1.26 | – | 1.11 ± 0.08 | – | –
FC(F)(F)c1ccc(-c2nnc(Nc3ccc(Br)cc3)o2)cc1 [Compound 4l, N-(4-Bromophenyl)-5-(4-(trifluoromethyl)phenyl)-1,3,4-oxadiazol-2-amine] | weak inhibition; also recorded: demolished the activity | – | 26.91 | demolished the activity | moderate to weak inhibition; also recorded: demolished the activity | 44.56 | – | 36.81 ^c % | – | 24.86 ^c % | demolished the activity
Cc1ccc(F)c(-c2nnc(Nc3ccccc3F)o2)c1 [Compound 4h, 5-(2-Fluoro-5-methylphenyl)-N-(2-fluorophenyl)-1,3,4-oxadiazol-2-amine] | weak inhibition | – | 12.43 | – | potent inhibition | – | – | 21.87 ^c % | 1.51 ± 0.462 | 29.36 ^c % | –
Cc1ccc(Nc2nnc(-c3cccc(F)c3)o2)c(C)c1 [Compound 4e, N-(2,4-Dimethylphenyl)-5-(3-fluorophenyl)-1,3,4-oxadiazol-2-amine] | potent inhibition | 1.47 ± 0.45 | 10.54 | strong inhibition | potent inhibition | – | 1.91 ± 0.89 | – | 1.96 ± 0.176 | – | –
Cc1ccccc1Nc1nnc(-c2ccccc2)o1 [Compound 4n, 5-Phenyl-N-(o-tolyl)-1,3,4-oxadiazol-2-amine] | weak inhibition | – | 28.87 | – | – | – | – | 21.07 ^c % | – | 18.47 ^c % | –
Fc1cc(F)cc(Cc2nnc(Nc3ccccc3F)o2)c1 [Compound 4f, 5-(3,5-Difluorobenzyl)-N-(2-fluorophenyl)-1,3,4-oxadiazol-2-amine] | weak inhibition | – | 22.61 | – | potent inhibition | – | – | 34.82 ^c % | 2.03 ± 0.434 | 39.46 ^c % | –
N#Cc1cccc(Nc2nnc(-c3ccncc3)o2)c1 [Compound 4j, 3-((5-(Pyridin-4-yl)-1,3,4-oxadiazol-2-yl)amino)benzonitrile] | potent inhibition | 1.02 ± 0.09 | 20.55 | lost its inhibitory effects | potent inhibition | – | – | – | 1.56 ± 0.309 | 18.57 ^c % | –
Fc1ccccc1Nc1nnc(-c2ccc(C(F)(F)F)cc2)o1 [Compound 4i, N-(2-Fluorophenyl)-5-(4-(trifluoromethyl)phenyl)-1,3,4-oxadiazol-2-amine] | weak inhibition | – | 21.45 | – | potent inhibition; also recorded: moderate to weak inhibition | 37.12 | – | 38.11 ^c % | – | 32.53 ^c % | –
N#Cc1cccc(Nc2nnc(-c3ccc(C(F)(F)F)cc3)o2)c1 [Compound 4a, 3-((5-(4-(Trifluoromethyl)phenyl)-1,3,4-oxadiazol-2-yl)amino)benzonitrile] | weak inhibition | – | 20.54 | – | moderate to weak inhibition | 42.32 | – | 33.23 ^c % | – | 37.06 ^c % | –
c1ccc(Nc2nnc(-c3ccncc3)o2)cc1 [Compound 4d, N-Phenyl-5-(pyridin-4-yl)-1,3,4-oxadiazol-2-amine] | potent inhibition; also recorded: promising inhibitory effects | 1.44 ± 0.22 | 23.67 | strong inhibition; also recorded: promising inhibitory effects | – | – | – | – | – | – | –
N#Cc1cccc(Nc2nnc(Cc3ccccc3C(F)(F)F)o2)c1 [Compound 4b, 3-((5-(2-(Trifluoromethyl)benzyl)-1,3,4-oxadiazol-2-yl)amino)benzonitrile] | – | 2.86 ± 1.51 | 23.65 | – | moderate to weak inhibition | 31.34 | – | – | – | 35.73 ^c % | –
Fc1ccccc1Nc1nnc(Cc2ccccc2C(F)(F)F)o1 [Compound 4c, N-(2-Fluorophenyl)-5-(2-(trifluoromethyl)benzyl)-1,3,4-oxadiazol-2-amine] | potent inhibition | 1.9 ± 0.25 | 14.76 | strong inhibition | – | – | – | – | – | – | –
